“And” between values parts separate entries of the source, which are not always exact repeats. Equal entries are not always repeated. Where two headings read alike, the source gives them in different places.
Molecular target: NLRP3 inflammasome (Homo sapiens (Human), UniProt Q96P20)
Test: Evaluation of NLRP3 inflammasome inhibitory activity (inhibition of IL-1β production in THP1-Null cells, LPS/Nigericin)
[1] = inhibition of IL-1β production in THP1-Null cells

Chain of NLRP3 inflammasome (Q96P20 whole entry): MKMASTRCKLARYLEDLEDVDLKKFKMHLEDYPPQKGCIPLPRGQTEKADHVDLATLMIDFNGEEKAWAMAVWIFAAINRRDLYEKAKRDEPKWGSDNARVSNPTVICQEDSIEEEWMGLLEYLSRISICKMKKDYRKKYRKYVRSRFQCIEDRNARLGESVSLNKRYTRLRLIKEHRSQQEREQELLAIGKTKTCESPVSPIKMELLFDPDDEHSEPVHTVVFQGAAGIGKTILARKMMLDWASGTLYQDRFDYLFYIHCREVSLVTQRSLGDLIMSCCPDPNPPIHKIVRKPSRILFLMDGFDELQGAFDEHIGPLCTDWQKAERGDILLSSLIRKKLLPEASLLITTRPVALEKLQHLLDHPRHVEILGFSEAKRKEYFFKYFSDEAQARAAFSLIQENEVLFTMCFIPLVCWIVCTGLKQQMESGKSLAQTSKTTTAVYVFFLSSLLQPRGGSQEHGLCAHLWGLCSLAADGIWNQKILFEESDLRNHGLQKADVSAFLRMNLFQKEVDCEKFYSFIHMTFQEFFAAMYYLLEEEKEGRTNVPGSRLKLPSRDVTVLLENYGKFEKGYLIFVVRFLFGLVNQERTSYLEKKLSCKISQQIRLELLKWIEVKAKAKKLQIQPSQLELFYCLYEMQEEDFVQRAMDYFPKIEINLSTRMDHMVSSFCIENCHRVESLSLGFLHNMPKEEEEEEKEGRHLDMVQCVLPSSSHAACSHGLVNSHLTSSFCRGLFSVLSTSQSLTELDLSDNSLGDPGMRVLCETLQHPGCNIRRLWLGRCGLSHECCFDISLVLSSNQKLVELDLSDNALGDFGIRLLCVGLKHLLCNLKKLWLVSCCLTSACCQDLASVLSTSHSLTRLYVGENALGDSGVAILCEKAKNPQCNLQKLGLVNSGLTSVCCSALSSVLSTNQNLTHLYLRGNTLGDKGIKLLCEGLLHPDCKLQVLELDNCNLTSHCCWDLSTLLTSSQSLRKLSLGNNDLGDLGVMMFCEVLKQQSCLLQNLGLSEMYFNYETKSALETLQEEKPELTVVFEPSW

Row | SMILES | IC50 [1] | also measured
1 | COC1COCCN(S(=O)(=O)NC(=O)c2coc(Nc3cc(C(F)F)ccc3C)n2)C1 (racemic) [Example 2-331] |  | IC50: 59 nM
2 | Cc1ccc(C(F)(F)F)cc1Nc1nc(C(=O)NS(=O)(=O)N2CCOCC2c2ccccc2)co1 (racemic) [Example 2-346] |  | IC50: 290 nM
3 | CC1COCCN1S(=O)(=O)NC(=O)c1cnc(Nc2c3c(cc4c2CCC4)CCC3)o1 (racemic) [Example 5] |  | IC50: < 30 nM
4 | CC(C)C1COCCN1S(=O)(=O)NC(=O)c1cnc(Nc2c3c(cc4c2CCC4)CCC3)o1 (racemic) [Example 10] |  | IC50: 210 nM
5 | CCC1COCCN1S(=O)(=O)NC(=O)c1cnc(Nc2c3c(cc4c2CCC4)CCC3)o1 (racemic) [Example 11] |  | IC50: 72 nM
6 | COC1CN(S(=O)(=O)NC(=O)c2cnc(Nc3c4c(cc5c3CCC5)CCC4)o2)C1Cl (racemic) [Example 12] |  | IC50: 4000 nM
7 | CCC1CN(S(=O)(=O)NC(=O)c2cnc(Nc3c4c(cc5c3CCC5)CCC4)o2)CCO1 (racemic) [Example 16] |  | IC50: < 30 nM
8 | CN(C1CCOC1)S(=O)(=O)NC(=O)c1cnc(Nc2c3c(cc4c2CCC4)CCC3)o1 (racemic) [Example 24] |  | IC50: 160 nM
9 | CC1COCCN1S(=O)(=O)NC(=O)c1coc(Nc2c3c(cc4c2CCC4)CCC3)n1 (racemic) [Example 25] |  | IC50: 51 nM
10 | Cc1ccc(C(F)(F)F)cc1Nc1nc(C(=O)NS(=O)(=O)N2CCC(O)C2)co1 (racemic) [Example 29] |  | IC50: 120 nM
11 | Cc1ccc2c(c1Nc1nc(C(=O)NS(=O)(=O)N3CCC(O)C3)co1)CCC2 (racemic) [Example 30] |  | IC50: 190 nM
12 | CC1(O)CCN(S(=O)(=O)NC(=O)c2coc(Nc3c4c(c(F)c5c3CCC5)CCC4)n2)C1 (racemic) [Example 33, 2-((8-fluoro-1,2,3,5,6,7-hexahydro-s-indacen-4-yl)amino)-N-((3-hydroxy-3-methylpyrrolidin-1-yl)sulfonyl)oxazole-4-carboxamide] |  | IC50 (IL-1β production in THP1-Null cells, PMA/LPS primed, Nigericin 7.5 μmol/L): 99 nM
13 | COCC1CN(S(=O)(=O)NC(=O)c2coc(Nc3c4c(c(Cl)c5c3CCC5)CCC4)n2)CCO1 (racemic) [Example 38] |  | IC50: 73 nM
14 | O=C(NS(=O)(=O)N1CCCC1C(F)(F)F)c1coc(Nc2c3c(c(Cl)c4c2CCC4)CCC3)n1 (racemic) [Example 40] |  | IC50: 930 nM
15 | O=C(NS(=O)(=O)N1CCC(O)C1)c1coc(Nc2c3c(c(Cl)c4c2CCC4)CCC3)n1 (racemic) [Example 41] |  | IC50: 77 nM
16 | CS(=O)(=O)C1CCN(S(=O)(=O)NC(=O)c2coc(Nc3c4c(c(Cl)c5c3CCC5)CCC4)n2)C1 (racemic) [Example 47] |  | IC50: 420 nM
17 | O=C(NS(=O)(=O)N1CCC(O)C1)c1coc(Nc2c3c(c(F)c4c2CCC4)CCC3)n1 (racemic) [Example 52] |  | IC50: 32 nM
18 | O=C(NS(=O)(=O)N1CC2CC1CO2)c1coc(Nc2c3c(c(Cl)c4c2CCC4)CCC3)n1 (racemic) [Example 56] |  | IC50: 46 nM
19 | COC(=O)C1COCCN1S(=O)(=O)NC(=O)c1coc(Nc2c3c(c(Cl)c4c2CCC4)CCC3)n1 (racemic) [Example 72] |  | IC50: 310 nM
20 | COC(=O)CC1COCCN1S(=O)(=O)NC(=O)c1coc(Nc2c3c(c(Cl)c4c2CCC4)CCC3)n1 (racemic) [Example 73] |  | IC50: 160 nM
21 | CN(C)C1CCN(S(=O)(=O)NC(=O)c2coc(Nc3c4c(c(F)c5c3CCC5)CCC4)n2)C1 (racemic) [Example 74] |  | IC50: 180 nM
22 | Cc1ccc(C(F)(F)F)cc1Nc1nc(C(=O)NS(=O)(=O)N2CCC(S(=O)(=O)NC(C)C)CC2)co1 [Example 2-007] | < 30 nM | 
23 | O=C(NS(=O)(=O)N1CCOCC1)c1csc(Nc2c3c(cc4c2CCC4)CCC3)n1 [Example 2-012] | 60 nM and < 30 nM | 
24 | Cc1ccc(C(C)(F)F)cc1Nc1nc(C(=O)NS(=O)(=O)N(C)C)co1 [Example 2-013] | 64 nM | 
25 | CC(C)n1nc2c(c1Nc1nc(C(=O)NS(=O)(=O)N(C)C)co1)CCC2 [Example 2-014] | 6000 nM | 
26 | CC(=O)NC1CCN(S(=O)(=O)NC(=O)c2coc(Nc3cc(C(F)(F)F)ccc3C)n2)CC1 [Example 2-033] | 150 nM | 

Row | SMILES | IC50 [1] | also measured
27 | Cc1ccc(S(F)(F)(F)(F)F)cc1Nc1nc(C(=O)NS(=O)(=O)N(C)C)co1 [Example 2-034] | 100 nM | 
28 | Cc1ccc(C2CC2)cc1Nc1nc(C(=O)NS(=O)(=O)N(C)C)co1 [Example 2-035] | 220 nM | 
29 | Cc1ccc(C(F)(F)F)cc1Nc1nc(C(=O)NS(=O)(=O)NC2CCOCC2)co1 [Example 2-037] | 2700 nM | 
30 | Cc1cn(C(C)C)nc1Nc1nc(C(=O)NS(=O)(=O)N(C)C)co1 [Example 2-039] | 500 nM | 
31 | Cc1ccc(C2(C)CC2)cc1Nc1nc(C(=O)NS(=O)(=O)N(C)C)co1 [Example 2-044] | 60 nM | 
32 | Cc1ccc(C(F)(F)F)cc1Nc1nc(C(=O)NS(=O)(=O)NC(C)C)co1 [Example 2-046] | 320 nM | 
33 | COCCN(C(C)C)S(=O)(=O)NC(=O)c1coc(Nc2cc(C(F)(F)F)ccc2C)n1 [Example 2-048] | < 30 nM | 
34 | COCC1CN(S(=O)(=O)NC(=O)c2coc(Nc3cc(C(F)(F)F)ccc3C)n2)CCO1 (stereo not shown) [Example 2-049] | 46 nM | 
35 | Cc1ccc(C(C)C)cc1Nc1nc(C(=O)NS(=O)(=O)N(C)C)cs1 [Example 2-054] | 52 nM | 
36 | COC1CN(S(=O)(=O)NC(=O)c2coc(Nc3cc(C(F)(F)F)ccc3C)n2)C1 [Example 2-057] | 570 nM | 
37 | CCc1ccc(C(F)(F)F)cc1Nc1nc(C(=O)NS(=O)(=O)N(C)C)co1 [Example 2-060] | 46 nM | 
38 | Cc1ccc(C(F)(F)F)cc1Nc1nc(C(=O)NS(=O)(=O)N(C)C)cs1 [Example 2-062] | 48 nM | 
39 | Cc1ccc(C(F)(F)F)cc1Nc1nc(C(=O)NS(=O)(=O)N2CCOCC2)cs1 [Example 2-065] | 32 nM | 
40 | Cc1ccc(C(C)(C)C)cc1Nc1nc(C(=O)NS(=O)(=O)N(C)C)co1 [Example 2-069] | 66 nM | 
41 | CC(C)c1ccc(C(C)C)c(Nc2nc(C(=O)NS(=O)(=O)N(C)C)co2)c1 [Example 2-070] | 120 nM | 
42 | Cc1cnc(C(F)(F)F)cc1Nc1nc(C(=O)NS(=O)(=O)N(C)C)co1 [Example 2-074] | 11000 nM | 
43 | Cc1ccc2c(c1Nc1nc(C(=O)NS(=O)(=O)N(C)C)cs1)CCC2 [Example 2-083] | 490 nM | 
44 | Cc1ccc2c(c1Nc1nc(C(=O)NS(=O)(=O)N3CCOCC3)cs1)CCC2 [Example 2-084] | 140 nM | 
45 | Cc1ccc2c(c1Nc1nc(C(=O)NS(=O)(=O)N3CCCOCC3)cs1)CCC2 [Example 2-085] | 120 nM | 
46 | Cc1cnc(C)c(Nc2nc(C(=O)NS(=O)(=O)N(C)C)co2)n1 [Example 2-086] |  | inhibition at 3 µM (read-out: % inhibition at 3 μM): 17%
47 | Cc1ccc(C(F)(F)F)nc1Nc1nc(C(=O)NS(=O)(=O)N(C)C)co1 [Example 2-087] | 550 nM | 
48 | CC(C)c1nn(C(C)C)cc1Nc1nc(C(=O)NS(=O)(=O)N(C)C)co1 [Example 2-089] | 1200 nM | 
49 | Cc1ccc(C(F)(F)F)cc1Nc1nc(C(=O)NS(=O)(=O)N2CCC(=O)N(C)CC2)co1 [Example 2-093] | 59 nM | 
50 | Cc1ccc(C2(C#N)CC2)cc1Nc1nc(C(=O)NS(=O)(=O)N(C)C)co1 [Example 2-094] | 270 nM | 
51 | Cc1ccc(C(F)(F)F)cc1Nc1nc(C(=O)NS(=O)(=O)N2CCCN(S(=O)(=O)N(C)C)CC2)co1 [Example 2-099] | 21 nM | 

The next lines start with results.

Row | IC50 [1] | SMILES | also measured
52 | 72 nM | COC1COCCN(S(=O)(=O)NC(=O)c2coc(Nc3cc(C(F)(F)F)ccc3C)n2)C1 (single isomer, unassigned) [Example 2-218] | 
53 | 29 nM | COC1COCCN(S(=O)(=O)NC(=O)c2coc(Nc3cc(C(F)(F)F)ccc3C)n2)C1 (single isomer, unassigned) [Example 2-219] | 
54 | 63 nM | Cc1ccc(C2CC2)cc1Nc1nc(C(=O)NS(=O)(=O)N2CCOCC2)co1 [Example 2-001] | 
55 | 120 nM | Cc1ccc(C(F)F)cc1Nc1nc(C(=O)NS(=O)(=O)N(C)C)co1 [Example 2-010] | 
56 | 38 nM | Cc1ccc(C(C)(F)F)cc1Nc1nc(C(=O)NS(=O)(=O)N2CCOCC2)co1 [Example 2-015] | 
57 | 180 nM | Cc1ccc(C(F)(F)F)cc1Nc1nc(C(=O)NS(=O)(=O)N2CCCNCC2)co1 [Example 2-029] | 
58 | 56 nM | Cc1ccc(C2CC2)cc1Nc1nc(C(=O)NS(=O)(=O)N2CCCOCC2)co1 [Example 2-042] | 
59 | 49 nM | Cc1ccc(C(F)F)cc1Nc1nc(C(=O)NS(=O)(=O)N2CCCOCC2)co1 [Example 2-043] | 
60 | < 30 nM | Cc1ccc(C(C)C)cc1Nc1nc(C(=O)NS(=O)(=O)N2CCCOCC2)co1 [Example 2-047] | 
61 | 600 nM | Cc1ccc(C(F)(F)F)cc1Nc1nc(C(=O)NS(=O)(=O)N2CCNC(=O)CC2)co1 [Example 2-050] | 
62 | < 30 nM | Cc1ccc(C(C)C)cc1Nc1nc(C(=O)NS(=O)(=O)N2CCOCC2)cs1 [Example 2-055] | 
63 | < 30 nM | Cc1ccc(C(C)C)cc1Nc1nc(C(=O)NS(=O)(=O)N2CCCOCC2)cs1 [Example 2-056] | 
64 | < 30 nM | CCc1ccc(C(F)(F)F)cc1Nc1nc(C(=O)NS(=O)(=O)N2CCCOCC2)co1 [Example 2-059] | 
65 | 67 nM | Cc1ccc(CC(F)(F)F)cc1Nc1nc(C(=O)NS(=O)(=O)N2CCCOCC2)co1 [Example 2-063] | 
66 | 26 nM | CCS(=O)(=O)N1CCCN(S(=O)(=O)NC(=O)c2coc(Nc3cc(C(F)(F)F)ccc3C)n2)CC1 [Example 2-064] | 
67 | < 30 nM | Cc1ccc(C(F)(F)F)cc1Nc1nc(C(=O)NS(=O)(=O)N2CCCOCC2)cs1 [Example 2-066] | 
68 | 280 nM | Cc1ccc(C)c(Nc2nc(C(=O)NS(=O)(=O)N3CCCOCC3)co2)c1 [Example 2-073] | 
69 | 4500 nM | Cc1cnc(C(F)(F)F)cc1Nc1nc(C(=O)NS(=O)(=O)N2CCCOCC2)co1 [Example 2-075] | 
70 | 120 nM | Cc1ccc(C(F)(F)F)nc1Nc1nc(C(=O)NS(=O)(=O)N2CCCOCC2)co1 [Example 2-088] | 
71 | 570 nM | CC(C)c1nn(C(C)C)cc1Nc1nc(C(=O)NS(=O)(=O)N2CCCOCC2)co1 [Example 2-090] | 
72 | 150 nM | Cc1ccc2c(c1Nc1nc(C(=O)NS(=O)(=O)N3CCCOCC3)co1)CCC2 [Example 2-097] | 
73 | 250 nM | Cc1ccc(C(C)C)cc1Nc1nc(C(=O)NS(=O)(=O)N2CCOCC2(C)C)co1 [Example 2-098] | 
